This is an account of results in US20050192227A1, “Method for reducing the risk of cancer” (priority 1999, published 2005).

Data set [1] is described as follows: Undesirable side effects of daily doses in human subjects. Type of data set: in vivo. The note with it: daily dose of about 20 μg compared with about 40 μg. The procedure:
(§1) Therefore, for reducing risk on cancer in men or women with hPTH(1-34) according to the present invention, preferably one should use a daily dose greater than about 6 μg, more preferably at least about 15 μg. […] Therefore, any daily dose of hPTH(1-34) in the range of greater than about 6 μg to at least about 40 μg would be effective for reduction of the risk of cancer, according to the present method of using this form of parathyroid hormone. […] Accordingly, the present invention provides a method for reducing the risk of cancer in a human subject at risk thereof, comprising administering to the subject a parathyroid hormone. Preferably, the parathyroid hormone consists of amino acid sequence 1-34 of human parathyroid hormone. This hormone may be administered with or without concurrent administration of an antiresorptive agent other than vitamin D or calcium. Preferably, the hormone is administered in a daily dose in the range of about 15 μg to about 40 μg, for at least about 12 months. In this method for reducing the risk of cancer, the hormone may be administered for longer periods of several years (e.g., up to 3 years as in osteoporotic patients), including for the remaining life of a human subject identified as having a high risk of cancer.

The test system of a further data set is detectable tumors. As to the kind of experiment: Clinical trial of rhPTH(1-34) in postmenopausal women: incidence of cancer (patients with detectable tumors). The conditions noted are these: for number of patients with detectable tumors, breast carcinoma: 17-23 months, placebo 7; for number of patients with detectable tumors, skin carcinoma: placebo 5; for number of patients with detectable tumors, all cancers except breast carcinoma: placebo 16; for number of patients with detectable tumors, all cancers: placebo 21. Format: in vivo, human. The procedure: • Number of Subjects: rhPTH(1-34): 1093 enrolled, 848 finished. • Placebo: 544 enrolled, 447 finished. • Diagnosis and Inclusion Criteria: Women ages 30 to 85 years, postmenopausal for a minimum of 5 years, with a minimum of one moderate or two mild atraumatic vertebral fractures. • Dosage and Administration: Test Product (blinded) • rhPTH(1-34): 20 μg/day, given subcutaneously • rhPTH(1-34): 40 μg/day, given subcutaneously • Reference Therapy (blinded) • Placebo study material for injection • Duration of Treatment: rhPTH(1-34): 17-23 months (excluding 6-month run-in phase) • Placebo: 17-23 months (excluding 6-month run-in phase)
Criteria for Evaluation: Spine x-ray; serum biological markers (calcium, bon-specific alkaline phosphatase, procollagen I carboxy-terminal propeptide); urine markers (calcium, N-telopeptide, free deoxypyridinoline); 1,25-dihydroxyvitanin D; bone mineral density: spine, hip, wrist, and total body; height; population pharmacokinetics; bone biopsy (selected study sites).
Table 1 illustrates data showing the reduction in the number of patients having detectable tumors upon treatment with PTH.

The nature of data set [2]: Effectiveness of daily doses against osteoporosis in men and women. Format: in vivo, human. The note with it: daily doses of 20 μg and 40 μg compared.
For the next data set, the system named is biochemical bone markers. As to the kind of experiment: Applicant's dose studies in human subjects: changes in biochemical bone markers. Format: in vivo. How it is done: as §1
A further data set concerns MCF-7. The conditions noted are these: ER+ breast cancer cell line MCF-7, in vitro; cited from earlier work.

On to rhPTH(1-34), for which the undesirable side effects result in data set [1] is on record as “fewer undesirable side effects”. The “number of patients with detectable tumors, breast carcinoma” value with detectable tumors (PTH-20 (20 μg/day s.c., N = 541), p=0.017) was 1; with detectable tumors (PTH-40 (40 μg/day s.c., N = 522), p=0.017) it was 1. Besides, the “number of patients with detectable tumors, skin carcinoma” value with detectable tumors (PTH-20 (20 μg/day s.c., N = 541), p=0.532) was found to be 2; in the data set with detectable tumors (PTH-40 (40 μg/day s.c., N = 522), p=0.532), 4. In addition, the “number of patients with detectable tumors, all cancers except breast carcinoma” value came to 7 in the data set on detectable tumors (PTH-20 (20 μg/day s.c., N = 541)) and 10 in the data set with detectable tumors (PTH-40 (40 μg/day s.c., N = 522)). The “number of patients with detectable tumors, all cancers” value with detectable tumors (PTH-20 (20 μg/day s.c., N = 541), p=0.03) is 8; in the data set on detectable tumors (PTH-40 (40 μg/day s.c., N = 522), p=0.03) it was 11. For the same substance, the “percentage of patients with any form of detectable cancer” value with detectable tumors (all PTH-treated patients (20 and 40 μg/day pooled) vs. placebo 3.86%, p=0.03) came out at 1.79%. For the same substance, the “percentage of patients with skin carcinoma” value with detectable tumors (all PTH-treated patients pooled vs. placebo 0.919%, p=0.532) came to 0.564%. Moreover, the “percentage of patients with breast carcinoma” value with detectable tumors (all PTH-treated patients pooled vs. placebo 1.29%, p=0.017) was 0.188%. Also, in the data set with detectable tumors (all PTH-treated patients pooled vs. placebo 2.94%), the “percentage of patients with any form of detectable cancer, excluding breast carcinoma” value is 1.60%. Besides, the effectiveness against osteoporosis result in data set [2] was “similarly effective”. Besides, the “lowest tested dose found to be biologically active, as indicated by detectable changes in biochemical bone markers” value with biochemical bone markers is “about 15 μg”. Moreover, the “effects on biochemical bone markers” value with biochemical bone markers (6 μg dose) was “no significant effects”.

For PTHrP: PTH-related peptide/protein, the “response of MCF-7 cells to PTHrP” value with MCF-7 is “proliferates”.
